Reference: patent US8658604B2, “Template-fixed beta-hairpin peptidomimetics with protease inhibitory activity” (Polyphor Ltd, priority 2005, dated 2014)
Where two headings read alike, the source gives them in different places. Where a SMILES comes first, the peptide text is derived from it.

Experiments:
[1] = target: Thrombin, from Human Plasma (Homo sapiens, UniProt P00734); experiment: Enzymatic assay, thrombin
[2] = target: Urokinase from human urine (Homo sapiens, UniProt P00749); experiment: Enzymatic assay, urokinase
[3] = test system: Tryptase, from human lung; experiment: Enzymatic assay, tryptase; conditions: at 100 μM
[4] = target: Chymotrypsin, from human pancreas (Homo sapiens, UniProt P17538); experiment: Enzymatic assay, chymotrypsin; conditions: at 100 μM
Chain of Chymotrypsin, from human pancreas (P17538 19-263): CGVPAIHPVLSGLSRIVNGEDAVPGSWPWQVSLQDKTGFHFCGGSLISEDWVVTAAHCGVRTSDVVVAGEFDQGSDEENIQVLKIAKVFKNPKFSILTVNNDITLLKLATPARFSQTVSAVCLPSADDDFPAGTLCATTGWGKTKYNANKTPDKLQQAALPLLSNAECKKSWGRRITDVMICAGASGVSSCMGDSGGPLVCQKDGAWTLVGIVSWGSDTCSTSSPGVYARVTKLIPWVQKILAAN

[5] = test system: human red blood cells (hRBC); experiment: Hemolysis
Chymase, from human skin = target: T1, Chymase, from human skin (Homo sapiens, UniProt P23946); experiment: Enzymatic assay, chymase
T1 sequence (P23946 22-247): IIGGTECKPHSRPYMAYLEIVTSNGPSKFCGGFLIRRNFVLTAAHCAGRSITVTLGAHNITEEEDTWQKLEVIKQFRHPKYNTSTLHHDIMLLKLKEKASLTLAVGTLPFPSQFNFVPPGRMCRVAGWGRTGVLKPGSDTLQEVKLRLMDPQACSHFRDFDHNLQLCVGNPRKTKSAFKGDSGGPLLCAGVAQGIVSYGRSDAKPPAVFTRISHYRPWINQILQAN

[6] = target: Coagulation Factor Xa, from uman plasma (Homo sapiens, UniProt P00742); experiment: Enzymatic assay, coagulation factor Xa
Chain of Coagulation Factor Xa, from uman plasma (P00742 235-488 limits assumed): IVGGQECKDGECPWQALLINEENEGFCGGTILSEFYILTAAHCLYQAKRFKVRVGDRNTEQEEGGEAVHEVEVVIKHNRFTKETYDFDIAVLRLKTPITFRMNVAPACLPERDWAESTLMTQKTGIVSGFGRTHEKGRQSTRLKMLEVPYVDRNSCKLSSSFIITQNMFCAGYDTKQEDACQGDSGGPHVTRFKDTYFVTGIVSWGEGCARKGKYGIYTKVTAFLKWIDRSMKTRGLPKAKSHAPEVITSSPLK
Chain of Coagulation Factor Xa, from uman plasma (P00742 41-179 limits assumed): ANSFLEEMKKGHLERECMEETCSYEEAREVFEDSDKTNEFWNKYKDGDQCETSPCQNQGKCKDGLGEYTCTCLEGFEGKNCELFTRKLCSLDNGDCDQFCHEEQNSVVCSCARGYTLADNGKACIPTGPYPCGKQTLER

[7] = target: Trypsin, from human pancreas (Homo sapiens, UniProt P07477); experiment: Enzymatic assay, trypsin; conditions: at 100 μM
[8] = target: T2, CathepsinG, from human neutrophils (Homo sapiens, UniProt P08311); experiment: Enzymatic assay, cathepsin G
T2 sequence (P08311 21-244): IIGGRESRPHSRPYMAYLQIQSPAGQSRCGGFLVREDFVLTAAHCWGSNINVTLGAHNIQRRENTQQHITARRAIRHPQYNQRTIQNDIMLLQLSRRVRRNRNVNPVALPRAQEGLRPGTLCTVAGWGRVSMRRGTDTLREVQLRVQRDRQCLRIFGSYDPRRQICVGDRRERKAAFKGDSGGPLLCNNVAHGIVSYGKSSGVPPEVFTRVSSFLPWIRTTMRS

HELA cells (Acc57) = experiment: Cytotoxicity assay (MTT reduction), HELA cells; type: cell-based
In short: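 HeLa cells were grown for 24 h, then exposed to peptides at 12.5, 25 and 50 μM in triplicate for 48 h at 37 °C. MTT reduction was read at 595 nm and growth % calculated relative to time-zero wells. LC50 interpolated by linear trend at −50% growth, GI50 at 50%.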

[9] = target: T3, Elastase from human neutrophils (Homo sapiens, UniProt P08246); experiment: Enzymatic assay, elastase
T3 sequence (P08246 30-267): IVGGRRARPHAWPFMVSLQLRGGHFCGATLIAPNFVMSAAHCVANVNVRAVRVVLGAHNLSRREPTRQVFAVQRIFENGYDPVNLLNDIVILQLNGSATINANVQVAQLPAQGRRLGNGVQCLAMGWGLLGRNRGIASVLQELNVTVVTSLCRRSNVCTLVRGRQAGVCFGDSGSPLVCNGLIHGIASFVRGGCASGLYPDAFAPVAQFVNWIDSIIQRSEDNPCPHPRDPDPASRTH

Structure (SMILES)	Thrombin at 100 μM % [1] [%]	Urokinase at 100 μM % [2] [%]	Tryptase at 100 μM % [3] [%]	Chymotrypsin at 100 μM % [4] [%]	Hemolysis at 100 μM % [5] [%]	Chymase at 100 μM % (Chymase, from human skin) [%]	FXa at 100 μM % [6] [%]	Trypsin at 100 μM % [7] [%]	IC50 ([8]; Cathepsin G IC50) [µM]	Cytotoxicity LC50/GI50 Hela cells (HELA cells (Acc57); Hela cells) [µM]	IC50 ([9]; Elastase IC50) [µM]	Cytotoxicity LC50/GI50 Hela cells (HELA cells (Acc57)) [µM]	Elastase at 100 μM % ([9]; at 100 μM (stated in cell instead of IC50)) [at %]	IC50 ([9]; read-out: Elastase IC50) [µM]	IC50 ([8]; read-out: Cathepsin G IC50) [µM]
CC[C@H](C)[C@@H]1NC(=O)[C@@H]2CCCN2C(=O)[C@@H]2CCCN2C(=O)[C@H](CC(=O)O)NC(=O)[C@H](CO)NC(=O)[C@H](CCCCN)NC(=O)[C@H]([C@@H](C)O)NC(=O)[C@@H]2CSSC[C@H](NC1=O)C(=O)N[C@@H](CC(N)=O)C(=O)N1CCC[C@@H]1C(=O)N1CCC[C@H]1C(=O)N[C@@H](Cc1ccccc1)C(=O)N2 [Ex. 3] (HELM PEPTIDE1{F.C.T.K.S.D.P.P.I.C.N.[dP].P}$PEPTIDE1,PEPTIDE1,2:R3-10:R3|PEPTIDE1,PEPTIDE1,1:R1-13:R2$$$V2.0)	0	4	68	0	0	1	4	92	0.051	100	> 100				
CC[C@H](C)[C@@H]1NC(=O)[C@@H]2CCCN2C(=O)[C@@H]2CCCN2C(=O)[C@H](CC(=O)O)NC(=O)[C@H](CO)NC(=O)[C@H](CCCCN)NC(=O)[C@H]([C@@H](C)O)NC(=O)[C@@H]2CSSC[C@H](NC1=O)C(=O)N[C@@H](CO)C(=O)N1CCC[C@@H]1C(=O)N1CCC[C@H]1C(=O)N[C@@H](Cc1ccccc1)C(=O)N2 [Ex. 4] (HELM PEPTIDE1{F.C.T.K.S.D.P.P.I.C.S.[dP].P}$PEPTIDE1,PEPTIDE1,2:R3-10:R3|PEPTIDE1,PEPTIDE1,1:R1-13:R2$$$V2.0)	0	5.4	0	1.8	0	0	2.4	96	0.091	100	> 100				
CC[C@H](C)[C@@H]1NC(=O)[C@@H]2CCCN2C(=O)[C@@H]2CCCN2C(=O)[C@H](CC(=O)O)NC(=O)[C@H](CO)NC(=O)[C@H](CCCCN)NC(=O)[C@H]([C@@H](C)O)NC(=O)[C@H](CCC(=O)O)NC(=O)[C@H](CCCNC(=N)N)NC(=O)[C@@H]2CCCN2C(=O)[C@H]2CCCN2C(=O)[C@H](Cc2ccccc2)NC(=O)[C@H](CCCNC(=N)N)NC1=O [Ex. 7] (HELM PEPTIDE1{R.E.T.K.S.D.P.P.I.R.F.[dP].P}$PEPTIDE1,PEPTIDE1,1:R1-13:R2$$$V2.0)	0	1.1	1.5	12	0.2	13.4	11.7	41	0.091			100	1.5		
CC[C@H](C)[C@@H]1NC(=O)[C@H](C)NC(=O)[C@@H]2CCCN2C(=O)[C@H](CC(=O)O)NC(=O)[C@H](CO)NC(=O)[C@H](CCCCN)NC(=O)[C@H]([C@@H](C)O)NC(=O)[C@@H]2CSSC[C@H](NC1=O)C(=O)N[C@@H](CCCNC(=N)N)C(=O)N1CCC[C@@H]1C(=O)N1CCC[C@H]1C(=O)N[C@@H]([C@@H](C)CC)C(=O)N2 [Ex. 14] (HELM PEPTIDE1{I.C.T.K.S.D.P.A.I.C.R.[dP].P}$PEPTIDE1,PEPTIDE1,2:R3-10:R3|PEPTIDE1,PEPTIDE1,1:R1-13:R2$$$V2.0)	8.7	5.4	84.2	0	0	42.3	6	88	0.052	100	> 100				
C[C@@H](O)[C@@H]1NC(=O)[C@@H]2CSSC[C@H](NC(=O)[C@H](CC3CCCCC3)NC(=O)[C@@H]3CCCN3C(=O)[C@@H]3CCCN3C(=O)[C@H](CC(=O)O)NC(=O)[C@H](CO)NC(=O)[C@H](CCCCN)NC1=O)C(=O)N[C@@H](CO)C(=O)N1CCC[C@@H]1C(=O)N1CCC[C@H]1C(=O)N[C@@H](Cc1ccccc1)C(=O)N2 [Ex. 16] (HELM PEPTIDE1{F.C.T.K.S.D.P.P.[Cha].C.S.[dP].P}$PEPTIDE1,PEPTIDE1,2:R3-10:R3|PEPTIDE1,PEPTIDE1,1:R1-13:R2$$$V2.0)		3.2		17.9	0.1	12.9		90.0	0.066	94	> 100				
CCCC[C@@H]1NC(=O)[C@@H]2CCCN2C(=O)[C@@H]2CCCN2C(=O)[C@H](CC(=O)O)NC(=O)[C@H](CO)NC(=O)[C@H](CCCCN)NC(=O)[C@H]([C@@H](C)O)NC(=O)[C@@H]2CSSC[C@H](NC1=O)C(=O)N[C@@H](CCCNC(=N)N)C(=O)N1CCC[C@@H]1C(=O)N1CCC[C@H]1C(=O)N[C@@H]([C@@H](C)CC)C(=O)N2 [Ex. 19] (HELM PEPTIDE1{I.C.T.K.S.D.P.P.[Nle].C.R.[dP].P}$PEPTIDE1,PEPTIDE1,2:R3-10:R3|PEPTIDE1,PEPTIDE1,1:R1-13:R2$$$V2.0)	11	4	85.2	0	0	26.9	32	94.0	0.041	100	> 100				
CC[C@H](C)[C@@H]1NC(=O)[C@@H]2CCCN2C(=O)[C@H]2CCCN2C(=O)[C@H](CCCNC(=N)N)NC(=O)[C@@H]2CSSC[C@H](NC1=O)C(=O)N[C@@H]([C@@H](C)O)C(=O)N[C@@H](CCCCN)C(=O)N[C@@H](CO)C(=O)N[C@@H](CC(=O)O)C(=O)N1CCC[C@H]1C(=O)N1CCC[C@H]1C(=O)N[C@@H](CC1CCCCC1)C(=O)N2 [Ex. 20] (HELM PEPTIDE1{I.C.T.K.S.D.P.P.[Cha].C.R.[dP].P}$PEPTIDE1,PEPTIDE1,2:R3-10:R3|PEPTIDE1,PEPTIDE1,1:R1-13:R2$$$V2.0)	28	6.7		0	0	44.1	25	97.0	0.048	100	> 100				
CC[C@H](C)[C@@H]1NC(=O)[C@@H]2CCCN2C(=O)[C@H]2CCCN2C(=O)[C@H](CCCNC(=N)N)NC(=O)[C@@H]2CSSC[C@H](NC1=O)C(=O)N[C@@H]([C@@H](C)O)C(=O)N[C@@H](CCCCN)C(=O)N[C@@H](CO)C(=O)N[C@@H](CC(=O)O)C(=O)N1CCC[C@H]1C(=O)N1CCC[C@H]1C(=O)N[C@@H](CC1CCCCC1)C(=O)N2 [Ex. 58] (HELM PEPTIDE1{I.C.T.K.S.D.P.P.[Cha].C.R.[dP].P}$PEPTIDE1,PEPTIDE1,2:R3-10:R3|PEPTIDE1,PEPTIDE1,1:R1-13:R2$$$V2.0)	28	6.7		0	0	44.1	25	97	0.0475	100				> 100	
CCCC[C@@H]1NC(=O)[C@H]([C@@H](C)O)NC(=O)[C@@H]2CSSC[C@H](NC(=O)[C@H]([C@@H](C)CC)NC(=O)[C@@H]3CCCN3C(=O)[C@@H]3CCCN3C(=O)[C@H](CC(=O)O)NC(=O)[C@H](CO)NC1=O)C(=O)N[C@@H](CCCNC(=N)N)C(=O)N1CCC[C@@H]1C(=O)N1CCC[C@H]1C(=O)N[C@@H]([C@@H](C)CC)C(=O)N2 [Ex. 59] (HELM PEPTIDE1{I.C.T.[Nle].S.D.P.P.I.C.R.[dP].P}$PEPTIDE1,PEPTIDE1,2:R3-10:R3|PEPTIDE1,PEPTIDE1,1:R1-13:R2$$$V2.0)		5.7	3.8	0	0	98.8		84		8				> 100	0.055
